In PMC9636434, “Discovery of small molecule agonists of the Relaxin Family Peptide Receptor 2” (Communications Biology, 2022):
Where “and” joins values, the source holds several entries; their conditions need not be identical. Equal entries are not always repeated.

Tests used:
[1] = test system: female gubernaculum (mouse RXFP2 receptor in vivo); assay: Gubernaculum development in female embryos of treated pregnant mice (histology); details: 30 mg/kg IP to pregnant females, E12.5 to E17.5
Experimental: The INSL3 surge that drives gubernaculum development during the transabdominal stage of testicular descent in male mice occurs between embryonic day E14.5 and 17.5[5],[6],[41]. In females, there is no detectable INSL3 expression and therefore the gubernaculum remains underdeveloped as a vestigial structure. […] Therefore, we hypothesized that the small molecule agonists of RXFP2 would show similar effects in female mice. Compound activity was tested by injecting pregnant females with the RXFP2 agonists starting from day E12.5 to E17.5 of embryonic development followed by histological evaluation of the gubernaculum in developing female embryos. […] At E18.5 the processus vaginalis or outpouching of the peritoneum occurs in males at the site of gubernacular caudal connection[43] (Fig. 3a). […] No differences were detected in the position of the ovaries in compound-treated female embryos and controls.
Fig. 3 RXFP2 agonists are biologically active and selective in vivo. a Diagram of the treatment protocol and representative histological section of the developed male gubernaculum at embryonic day 18.5 (upper left). b Representative histological sections showing a male-like invagination of the female gubernaculum in all compound-treated embryos (blue arrows). Four female embryos were analyzed per group. Scale bar = 100 µm. […]

human TSHR = human TSHR (Homo sapiens, UniProt P16473); assay: HitHunter cAMP XS+ assay, cAMP Hunter cell line TSHR; type: cell-based; details: for RLU: replicates (1),(2)
Chain of human TSHR (P16473 21-764): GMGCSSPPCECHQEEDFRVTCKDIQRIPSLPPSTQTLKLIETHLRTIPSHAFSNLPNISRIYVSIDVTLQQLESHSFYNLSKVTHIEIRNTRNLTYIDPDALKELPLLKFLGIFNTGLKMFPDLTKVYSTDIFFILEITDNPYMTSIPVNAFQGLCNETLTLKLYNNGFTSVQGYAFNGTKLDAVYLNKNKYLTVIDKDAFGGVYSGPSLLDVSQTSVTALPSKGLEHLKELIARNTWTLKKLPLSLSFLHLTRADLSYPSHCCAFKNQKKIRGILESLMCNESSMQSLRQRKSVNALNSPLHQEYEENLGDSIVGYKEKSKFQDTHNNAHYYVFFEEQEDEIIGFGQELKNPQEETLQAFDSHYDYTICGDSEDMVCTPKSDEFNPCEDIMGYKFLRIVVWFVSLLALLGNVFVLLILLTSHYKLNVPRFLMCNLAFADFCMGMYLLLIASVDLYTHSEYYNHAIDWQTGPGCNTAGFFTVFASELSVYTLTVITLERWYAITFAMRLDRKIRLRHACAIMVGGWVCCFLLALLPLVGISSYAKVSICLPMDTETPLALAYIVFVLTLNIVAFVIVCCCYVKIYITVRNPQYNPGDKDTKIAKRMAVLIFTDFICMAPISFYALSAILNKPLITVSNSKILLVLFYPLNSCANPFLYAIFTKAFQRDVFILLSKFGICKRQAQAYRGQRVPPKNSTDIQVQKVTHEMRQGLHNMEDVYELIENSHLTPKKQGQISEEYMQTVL
From the text: Results are reported as raw RLU values and represent the
mean ± SEM of 2 technical replicates.

HCO cells = assay: CellTiter-Glo cytotoxicity assay in HCO cells; type: cell-based, human; details: experiments (1)-(3)
From the text: Fig. 4 RXFP2 agonists induce mineralization of primary human osteoblasts and are non-cytotoxic. a Mineral hydroxyapatite fluorescent quantification after 14-day treatment in HCO cells. Results were normalized to control DMSO as 100% mineralization. b HCO and c HAVSMC toxicity after 24-h treatment with RXFP2 agonists, normalized to DMSO treatment as 0% toxicity. Results are expressed as mean ± SEM of 3 independent experiments. *p < 0.05, *** p < 0.001 vs. DMSO using One-way ANOVA.
Cell viability studies were undertaken to identify potential cytotoxic effects of the RXFP2 agonists. HCO cells and human aortic vascular smooth muscle cells (HAVSMC) were treated for 24 h. […] At 8.3 µM and below, no toxicity was found in HCO cells and toxicity was below 20% in HAVSMC cells for all three compounds (Fig. 4b, c).
The ATP CellTiter-Glo Luminescent Cell Viability Assay (Promega, Madison, WI) was used to measure cytotoxicity induced by the compounds in HCO cells and human aortic vascular smooth muscle cells (HAVSMC) (ATCC, Manassas, VA). HCO and HAVSMC cells were seeded in 96-well plates at 3000 and 7000 cells per well respectively. Cells were incubated overnight, treated with compound or DMSO vehicle and incubated for 24 h at 37 °C, 5% CO2. […] Plates were shaken for 2 min, incubated at room temperature for 10 min and the luminescent signal was read on a CLARIOstar plate reader.

O=C1Nc2ccc(-c3cc(C(F)(F)F)cc(C(F)(F)F)c3)cc2C(=O)N2CCN(C(=O)COc3ccc(OC(F)(F)F)cc3I)C[C@@H]12 [compound 6641]
gubernaculum phenotype of female embryos at E18.5 [1]: male-like invagination of the gubernaculum
cAMP response through TSHR (human TSHR; Hit Hunter cAMP assay): did not result in an increase of cAMP level
RLU (human TSHR; Log [M] -4.70): 1000 RLU and 1240 RLU
RLU (human TSHR; Log [M] -5.18): 1000 RLU and 1040 RLU
RLU (human TSHR; Log [M] -5.65): 960 RLU
RLU (human TSHR; Log [M] -6.13): 1040 RLU
RLU (human TSHR; Log [M] -6.61): 1200 RLU
RLU (human TSHR; Log [M] -7.08): 880 RLU
RLU (human TSHR; Log [M] -7.56): 920 RLU and 1000 RLU
RLU (human TSHR; Log [M] -8.04): 880 RLU
RLU (human TSHR; Log [M] -8.52): 1080 RLU and 920 RLU
RLU (human TSHR; Log [M] -8.99): 960 RLU and 1040 RLU
% Tox (HCO cells; Log [M] -6.03, 24 h): -11.63% and -7.45% and -4.96%
% Tox (HCO cells; Log [M] -6.51, 24 h): -9.76% and -5.09% and -6.71%
